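Five compound concentrations were applied to cells in 96-well plates for 48 hours; endpoints were derived by simple linear interpolation of the resulting dose-response curve. Abbreviation: GI50, concentration required for 50% inhibition of growth. TGI: total growth inhibition.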

Test systems include OVCAR-3 ovarian; HCT-15 colon; SW-620 colon; NCI-H226 lung; MDA-MB-435; NCI-H460 lung; COLO 205 colon; M14 melanoma; HCT-116 colon; K-562 leukemia.
Holding throughout (test): NCI anticancer screen, dose series, 48 h

`O=C1/C(=C/c2cccc([N+](=O)[O-])c2)COc2ccc(O)c(O)c21`: the GI50 was 1.2 µM in the assay with OVCAR-3 ovarian; 0.569 µM in the assay with HCT-15 colon; 1.14 µM in the assay on SW-620 colon; 2.35 µM with NCI-H226 lung; 1.69 µM in the assay on MDA-MB-435; 2.08 µM in the assay on NCI-H460 lung. In addition, the GI50 with COLO 205 colon was 1.79 µM; in the assay on M14 melanoma it was 1.81 µM; with HCT-116 colon, 1.14 µM; in the assay with K-562 leukemia it was 0.506 µM. Also, the TGI in the assay with OVCAR-3 ovarian stood at 2.71 µM; with HCT-15 colon, 2.76 µM; in the assay on SW-620 colon, 3.08 µM; in the assay with NCI-H226 lung, 8.33 µM; in the assay on MDA-MB-435, 3.77 µM; in the assay on NCI-H460 lung, 4.97 µM. Further, the TGI in the assay on COLO 205 colon was 3.74 µM; in the assay with M14 melanoma, 4.27 µM; in the assay on HCT-116 colon, 2.7 µM; in the assay with K-562 leukemia, 7.22 µM.
As for `Cc1ccc(NC(c2ccccc2)c2ccc3cccnc3c2O)cc1` (stereo not given), the TGI was 7.58 µM with OVCAR-3 ovarian; 14.4 µM with HCT-15 colon; over 52.2 µM with SW-620 colon; 8.4 µM with NCI-H226 lung; 19.3 µM in the assay with MDA-MB-435; over 25 µM in the assay with NCI-H460 lung. Moreover, the TGI came out at 16.5 µM in the assay on COLO 205 colon, 19 µM in the assay on M14 melanoma, 13.8 µM in the assay with HCT-116 colon and 30 µM in the assay on K-562 leukemia.
For `O=C(/C=C/c1ccco1)c1ccc(Nc2nc(Nc3ccc(F)cc3)nc(Nc3ccc(Cl)cc3)n2)cc1`, the GI50 in the assay on OVCAR-3 ovarian is 18 µM; in the assay on HCT-15 colon, 9.47 µM; in the assay with SW-620 colon, 24.5 µM; in the assay with NCI-H226 lung, over 35.4 µM; with MDA-MB-435, 30.5 µM; with NCI-H460 lung, 9.29 µM. The GI50 was 12.1 µM with COLO 205 colon, 13.5 µM in the assay on M14 melanoma, 16.5 µM in the assay on HCT-116 colon and 24.3 µM in the assay on K-562 leukemia. The TGI with OVCAR-3 ovarian was 56.8 µM; in the assay on HCT-15 colon, over 100 µM; in the assay on SW-620 colon it was over 63.3 µM; in the assay on NCI-H226 lung it was over 82.2 µM; with MDA-MB-435, over 59.6 µM; in the assay on NCI-H460 lung, 31.9 µM. For the same compound, the TGI is over 100 µM in the assay with COLO 205 colon, 56.9 µM in the assay on M14 melanoma, over 54.4 µM in the assay with HCT-116 colon and over 64.8 µM with K-562 leukemia.
Regarding `C[Si](C)(C)C#CCO[Si](C)(C)C`, the TGI with OVCAR-3 ovarian, in the assay with HCT-15 colon, in the assay with SW-620 colon, in the assay on NCI-H226 lung, with MDA-MB-435 and in the assay with NCI-H460 lung was over 100 µM in each case. Further, the TGI with COLO 205 colon, in the assay on M14 melanoma, with HCT-116 colon and with K-562 leukemia was over 100 µM each time.
As to `O=C1OC(c2ccco2)=N/C1=C\c1ccc(Cl)c(Cl)c1`, the TGI with OVCAR-3 ovarian, with HCT-15 colon, in the assay on SW-620 colon, in the assay on NCI-H226 lung, with MDA-MB-435 and with NCI-H460 lung was over 100 µM throughout. Besides, the TGI in the assay on COLO 205 colon, in the assay with M14 melanoma, with HCT-116 colon and in the assay on K-562 leukemia was over 100 µM each time.
`C=C1C(=O)O[C@@H]2C[C@@H]1CC[C@]1(C)O[C@H]1CC[C@@]1(C)O[C@@H]1CC[C@@]2(C)O`: the GI50 is 16.2 µM in the assay on OVCAR-3 ovarian; 29.2 µM in the assay on HCT-15 colon; 29.2 µM with SW-620 colon; 26.7 µM in the assay with NCI-H226 lung; 33 µM in the assay on MDA-MB-435; over 100 µM in the assay on NCI-H460 lung. For the same compound, the GI50 is 16.4 µM in the assay with COLO 205 colon, 34.2 µM in the assay on M14 melanoma, 23.1 µM with HCT-116 colon and 19.5 µM in the assay with K-562 leukemia. In addition, the TGI is 51.9 µM with OVCAR-3 ovarian; over 100 µM in the assay on HCT-15 colon; over 100 µM in the assay with SW-620 colon; 86.2 µM with NCI-H226 lung; over 100 µM in the assay on MDA-MB-435; over 100 µM in the assay with NCI-H460 lung. The TGI in the assay on COLO 205 colon was 34.2 µM; in the assay with M14 melanoma, over 100 µM; with HCT-116 colon, 65.9 µM; in the assay on K-562 leukemia it was over 100 µM.
Regarding `O=C(Nc1ccc(Cl)c([N+](=O)[O-])c1)Nc1nc2ccccc2s1`, the GI50 was 3.27 µM with OVCAR-3 ovarian; 3.32 µM with HCT-15 colon; 3.38 µM in the assay with SW-620 colon; 4.06 µM with NCI-H226 lung; 2.73 µM with MDA-MB-435; 2.93 µM in the assay on NCI-H460 lung. Moreover, the GI50 with COLO 205 colon was 1.78 µM; in the assay with M14 melanoma it was 11.3 µM; in the assay on HCT-116 colon, 3.57 µM; in the assay with K-562 leukemia it was 4.15 µM. Further, the TGI in the assay with OVCAR-3 ovarian was determined as 10.6 µM; with HCT-15 colon, 15.5 µM; with SW-620 colon it was 14.5 µM; in the assay on NCI-H226 lung it was 17.3 µM; in the assay on MDA-MB-435, 8.15 µM; in the assay with NCI-H460 lung, 9.45 µM. Besides, the TGI with COLO 205 colon was 3.39 µM; with M14 melanoma it was 33 µM; in the assay on HCT-116 colon, 14.9 µM; in the assay with K-562 leukemia, over 100 µM.
`O=[N+]([O-])c1ccc(N2CCN(Cc3ccccc3)CC2)c2c1no[n+]2[O-]`: the GI50 was 1.52 µM in the assay on OVCAR-3 ovarian; 0.805 µM in the assay with HCT-15 colon; 1.2 µM with SW-620 colon; 1.57 µM in the assay with NCI-H226 lung; 1.72 µM in the assay on MDA-MB-435; 1.61 µM in the assay on NCI-H460 lung. In addition, the GI50 is 1.48 µM in the assay with COLO 205 colon, 1.8 µM in the assay on M14 melanoma, 0.95 µM in the assay with HCT-116 colon and 1.05 µM in the assay with K-562 leukemia. The TGI was found to be 2.96 µM with OVCAR-3 ovarian; 2.46 µM with HCT-15 colon; 3.05 µM in the assay with SW-620 colon; 3.46 µM in the assay with NCI-H226 lung; 3.38 µM in the assay on MDA-MB-435; 3.52 µM in the assay on NCI-H460 lung. The TGI came out at 3.04 µM with COLO 205 colon, 3.52 µM in the assay with M14 melanoma, 2.38 µM in the assay on HCT-116 colon and 2.98 µM in the assay with K-562 leukemia.
Take `Cn1c(C(N)=O)cc2c1-c1nc(Nc3ccccc3)ncc1CCC2`: the GI50 was 10.1 µM in the assay on OVCAR-3 ovarian; 3.4 µM in the assay on HCT-15 colon; 6.31 µM with SW-620 colon; 0.902 µM in the assay on NCI-H226 lung; 3.88 µM in the assay on MDA-MB-435; 4.2 µM in the assay with NCI-H460 lung. The GI50 is 4.77 µM in the assay with COLO 205 colon, 4.73 µM in the assay with M14 melanoma, 3.52 µM in the assay on HCT-116 colon and 4.65 µM in the assay with K-562 leukemia. The TGI was 57.1 µM in the assay on OVCAR-3 ovarian; 28.6 µM in the assay on HCT-15 colon; 97.7 µM in the assay with SW-620 colon; 33.7 µM in the assay with NCI-H226 lung; over 100 µM in the assay on MDA-MB-435; over 100 µM in the assay on NCI-H460 lung. Also, the TGI with COLO 205 colon was 17.7 µM; with M14 melanoma, 41.1 µM; in the assay with HCT-116 colon, 41.7 µM; in the assay with K-562 leukemia, over 100 µM.

These data come from PubChem BioAssay (NCI).
